For test [1], the target named is Potassium channel subfamily K member 9 (Homo sapiens, UniProt Q9NPC2). As to the kind of experiment: KCNK9 flux blockade, concentration-response – cell-based, FluxOR thallium flux, selectivity assay for TASK1 inhibitor project, SAR follow-up (AID 652211).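 Further: potency is for inhibitors of the channel.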 Type of test: functional.
For test [2], the target named is T1, Trace amine-associated receptor 1 (Homo sapiens, UniProt Q96RJ0).
T1 sequence (Q96RJ0 whole entry): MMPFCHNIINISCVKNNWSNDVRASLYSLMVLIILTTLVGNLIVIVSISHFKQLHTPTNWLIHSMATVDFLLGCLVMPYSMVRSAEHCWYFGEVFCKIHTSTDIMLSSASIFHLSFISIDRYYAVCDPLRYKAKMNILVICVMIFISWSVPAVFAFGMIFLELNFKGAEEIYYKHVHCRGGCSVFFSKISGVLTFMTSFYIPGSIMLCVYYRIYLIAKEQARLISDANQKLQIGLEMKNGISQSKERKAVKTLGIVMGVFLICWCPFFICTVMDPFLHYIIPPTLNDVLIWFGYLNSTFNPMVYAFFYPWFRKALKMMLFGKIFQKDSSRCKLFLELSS
Put plainly: Fluorescence-based cell-based high throughput dose response assay to identify agonists of the human trace amine associated receptor 1 (TAAR1). It counts as functional.

A short description of test [3]: cells. Type of test: functional, cell-based.
Test [4] addresses T1, Trace amine-associated receptor 1. As to the kind of experiment: Counterscreen for agonists of the human trace amine associated receptor 1 (hTAAR1): Fluorescence-based cell-based high throughput dose response assay to identify hTAAR1 agonist that also desensitize TAAR1 receptor response. Type of test: functional. For orientation: The purpose of a counterscreen is to sort out artefacts and off-target activity.

A short description of test [5]: cells. Type of test: functional, cell-based. The source holds these as a separate data set.
In test [6] the target is T2, Heat shock factor protein 1 (Mus musculus, UniProt P38532).
T2 sequence (P38532 whole entry): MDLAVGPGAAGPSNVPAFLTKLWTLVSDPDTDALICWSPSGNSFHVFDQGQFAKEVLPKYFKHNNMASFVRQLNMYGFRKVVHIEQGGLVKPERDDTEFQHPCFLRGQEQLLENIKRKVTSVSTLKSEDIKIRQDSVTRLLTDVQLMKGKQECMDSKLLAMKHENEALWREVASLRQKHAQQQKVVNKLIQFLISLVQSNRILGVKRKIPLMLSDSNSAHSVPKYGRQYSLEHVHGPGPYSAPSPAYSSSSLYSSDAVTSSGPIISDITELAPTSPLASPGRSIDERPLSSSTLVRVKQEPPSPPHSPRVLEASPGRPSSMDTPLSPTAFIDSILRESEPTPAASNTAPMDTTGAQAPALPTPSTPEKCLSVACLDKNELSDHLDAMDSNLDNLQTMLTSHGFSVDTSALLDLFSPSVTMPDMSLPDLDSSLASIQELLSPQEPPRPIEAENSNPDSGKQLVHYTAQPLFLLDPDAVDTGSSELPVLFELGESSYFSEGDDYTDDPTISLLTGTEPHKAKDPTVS
Put plainly: decrease of HSF1-responsive luciferase luminescence – cell-based, NIH3T3, dose retest, confirmation (AID 2382).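 Further: NIH3T3 fibroblasts with HSF1-driven luciferase reporter stressed by proteasome inhibitor MG132; luminescence from HSF1-driven luciferase expression after 8 hours of MG132 stress.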 Type of test: functional.

The target in another test is Beta-galactosidase (Escherichia coli, UniProt Q8VNN2). Put plainly: Dose response counterscreen for EBI2 assay utilizing the enzyme, b-galactosidase. Type of test: functional.
Chain of Beta-galactosidase (Q8VNN2 whole entry, the tested form may be a part): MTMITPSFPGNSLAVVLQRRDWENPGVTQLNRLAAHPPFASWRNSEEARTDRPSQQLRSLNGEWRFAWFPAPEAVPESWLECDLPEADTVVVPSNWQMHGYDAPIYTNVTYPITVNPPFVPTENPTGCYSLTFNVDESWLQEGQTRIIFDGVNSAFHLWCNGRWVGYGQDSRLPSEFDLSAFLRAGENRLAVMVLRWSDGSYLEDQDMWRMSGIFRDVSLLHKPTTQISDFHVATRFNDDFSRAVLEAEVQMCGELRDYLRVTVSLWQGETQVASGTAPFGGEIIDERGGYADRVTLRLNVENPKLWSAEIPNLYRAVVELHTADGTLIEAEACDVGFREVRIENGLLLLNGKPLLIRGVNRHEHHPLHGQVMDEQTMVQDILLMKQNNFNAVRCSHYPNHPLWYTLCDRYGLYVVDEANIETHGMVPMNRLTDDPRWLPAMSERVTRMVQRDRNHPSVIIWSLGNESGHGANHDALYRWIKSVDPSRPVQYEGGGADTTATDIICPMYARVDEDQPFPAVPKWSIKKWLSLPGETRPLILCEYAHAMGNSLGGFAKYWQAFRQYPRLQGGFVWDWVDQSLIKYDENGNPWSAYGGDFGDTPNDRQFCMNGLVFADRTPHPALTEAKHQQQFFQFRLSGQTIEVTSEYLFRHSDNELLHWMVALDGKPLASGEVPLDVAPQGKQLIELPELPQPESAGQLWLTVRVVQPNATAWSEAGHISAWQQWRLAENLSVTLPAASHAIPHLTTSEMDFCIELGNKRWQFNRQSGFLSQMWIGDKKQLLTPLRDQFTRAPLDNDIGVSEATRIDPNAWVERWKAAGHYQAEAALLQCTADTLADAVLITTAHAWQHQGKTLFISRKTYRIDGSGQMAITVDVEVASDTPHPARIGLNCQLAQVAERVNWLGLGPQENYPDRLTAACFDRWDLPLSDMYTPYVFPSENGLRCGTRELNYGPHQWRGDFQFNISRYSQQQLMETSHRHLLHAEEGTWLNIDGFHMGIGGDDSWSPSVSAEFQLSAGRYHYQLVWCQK
In test [7] the target is Arf-GAP with SH3 domain, ANK repeat and PH domain-containing protein 1 (Homo sapiens, UniProt Q9ULH1). Type of test: functional.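 Further: biochemical fluorescence polarization dose–response screen measuring inhibition of ASAP1; ASAP1 GAP domain stimulating GTP hydrolysis by truncated human ARF1.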
The target of test [8] is 5-hydroxytryptamine receptor 5A (Homo sapiens, UniProt P47898). Put plainly: Counterscreen for agonists of OPRM1-OPRD1 heterodimerization: luminescence-based cell-based high throughput dose response assay to identify agonists of 5-hydroxytryptamine (serotonin) 5A receptor (HTR5A). [Related pubchem assays (depositor defined):AID504326, AID504355, AID504692, AID504904, AID504905]. It counts as functional.
Chain of 5-hydroxytryptamine receptor 5A (P47898 whole entry): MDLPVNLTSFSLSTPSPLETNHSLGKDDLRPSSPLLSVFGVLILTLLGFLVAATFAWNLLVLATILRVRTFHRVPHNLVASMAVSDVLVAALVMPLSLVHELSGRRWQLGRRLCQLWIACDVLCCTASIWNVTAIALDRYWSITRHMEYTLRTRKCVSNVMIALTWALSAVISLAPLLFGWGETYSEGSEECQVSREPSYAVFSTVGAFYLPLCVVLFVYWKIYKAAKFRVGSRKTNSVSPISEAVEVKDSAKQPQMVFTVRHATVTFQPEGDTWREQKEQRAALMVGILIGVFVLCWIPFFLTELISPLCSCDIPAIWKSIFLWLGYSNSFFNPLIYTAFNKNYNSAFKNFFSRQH

Test [9] can be described thus: Counterscreen for activators of the function of SWI/SNF related, matrix associated, actin dependent regulator of chromatin, subfamily a, member 2 (SMARCA2, BRM): Luminescence-based cell-based high throughput dose response assay to identify non-selective compounds using the VP16 reporter assay. Type of test: functional.
A short description of test [10]: reduction of Shn3 3'UTR-driven luciferase in osteoblasts – cell-based, Clone20 osteoblasts, firefly luciferase, cherry-picked, dose response (AID 624132).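 Further: firefly luciferase luminescence from reporter carrying the Shn3 3'UTR in osteoblasts.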 Type of test: functional.
Test [11] concerns the target Delta-type opioid receptor (Homo sapiens, UniProt P41143). As to the kind of experiment: Counterscreen for agonists of heterodimerization of the mu 1 (OPRM1) and delta 1 (OPRD1) opioid receptors: Luminescence-based cell-based high throughput dose response assay to identify agonists of OPRD1 homodimerization. [Related pubchem assays (depositor defined):AID504326, AID504355, AID504692, AID504904, AID504905]. It counts as functional.

The target of test [12] is SWI/SNF-related matrix-associated actin-dependent regulator of chromatin subfamily A member 2 (Homo sapiens, UniProt P51531). As to the kind of experiment: Luminescence-based cell-based high throughput dose response assay to identify activators of the function of SWI/SNF related, matrix associated, actin dependent regulator of chromatin, subfamily a, member 2 (SMARCA2, BRM). It counts as functional.
Chain of SWI/SNF-related matrix-associated actin-dependent regulator of chromatin subfamily A member 2 (P51531 whole entry): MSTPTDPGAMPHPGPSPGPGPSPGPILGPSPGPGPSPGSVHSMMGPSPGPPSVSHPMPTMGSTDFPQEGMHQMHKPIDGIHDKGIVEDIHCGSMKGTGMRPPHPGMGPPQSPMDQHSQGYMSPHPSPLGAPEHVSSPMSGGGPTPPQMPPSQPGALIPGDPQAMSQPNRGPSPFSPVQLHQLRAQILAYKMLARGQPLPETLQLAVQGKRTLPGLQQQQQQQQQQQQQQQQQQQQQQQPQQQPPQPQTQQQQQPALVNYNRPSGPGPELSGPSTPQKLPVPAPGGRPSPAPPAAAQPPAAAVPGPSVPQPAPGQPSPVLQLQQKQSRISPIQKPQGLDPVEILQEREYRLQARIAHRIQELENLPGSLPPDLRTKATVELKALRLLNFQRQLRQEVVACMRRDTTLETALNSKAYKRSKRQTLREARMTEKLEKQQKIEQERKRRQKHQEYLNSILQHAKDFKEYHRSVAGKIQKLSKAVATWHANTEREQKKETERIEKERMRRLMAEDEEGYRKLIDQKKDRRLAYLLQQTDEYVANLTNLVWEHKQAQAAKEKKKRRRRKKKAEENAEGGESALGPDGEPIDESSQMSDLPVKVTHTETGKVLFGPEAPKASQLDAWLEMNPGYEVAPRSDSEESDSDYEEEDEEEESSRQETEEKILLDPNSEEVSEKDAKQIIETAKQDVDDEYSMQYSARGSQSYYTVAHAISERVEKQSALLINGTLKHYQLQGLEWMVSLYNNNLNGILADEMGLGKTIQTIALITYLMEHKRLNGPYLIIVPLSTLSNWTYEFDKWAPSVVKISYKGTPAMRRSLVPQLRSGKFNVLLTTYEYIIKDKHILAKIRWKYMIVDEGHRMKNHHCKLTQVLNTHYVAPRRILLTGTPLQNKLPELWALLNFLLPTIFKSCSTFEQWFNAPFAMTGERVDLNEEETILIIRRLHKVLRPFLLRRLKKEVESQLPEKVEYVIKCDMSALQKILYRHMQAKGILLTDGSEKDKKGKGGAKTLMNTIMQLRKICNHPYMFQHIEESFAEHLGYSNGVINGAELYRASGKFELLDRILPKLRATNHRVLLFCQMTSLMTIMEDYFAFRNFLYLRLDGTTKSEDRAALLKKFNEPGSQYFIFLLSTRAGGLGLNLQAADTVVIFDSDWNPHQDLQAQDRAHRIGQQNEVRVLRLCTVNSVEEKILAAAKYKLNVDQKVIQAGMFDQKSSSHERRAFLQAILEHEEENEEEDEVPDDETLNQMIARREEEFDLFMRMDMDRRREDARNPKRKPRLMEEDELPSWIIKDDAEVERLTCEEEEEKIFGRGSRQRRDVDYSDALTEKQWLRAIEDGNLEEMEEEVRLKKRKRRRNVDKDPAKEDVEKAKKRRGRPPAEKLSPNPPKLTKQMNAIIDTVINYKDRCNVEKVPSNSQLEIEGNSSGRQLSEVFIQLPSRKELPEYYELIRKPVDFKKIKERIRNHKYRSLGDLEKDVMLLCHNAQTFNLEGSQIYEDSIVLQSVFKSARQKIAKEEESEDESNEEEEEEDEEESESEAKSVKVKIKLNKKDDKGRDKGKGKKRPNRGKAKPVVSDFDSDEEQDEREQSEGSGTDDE

The nature of test [13]: non-specific 3'UTR reporter inhibition in Clone20-Shn3RL – cell-based, Renilla luciferase, cherry-picked, counter-screen for Shn3 inhibitor project, dose response (AID 624133). Type of test: functional.
In the next test the target is Mu-type opioid receptor (Homo sapiens, UniProt P35372). As to the kind of experiment: Counterscreen for agonists of heterodimerization of the mu 1 (OPRM1) and delta 1 (OPRD1) opioid receptors: Luminescence-based cell-based high throughput dose response assay to identify agonists of OPRM1 homodimerization. Type of test: functional.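 Further: U2OS cells expressing OPRM1 and beta-arrestin as split beta-galactosidase partners.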
Chain of Mu-type opioid receptor (P35372 whole entry): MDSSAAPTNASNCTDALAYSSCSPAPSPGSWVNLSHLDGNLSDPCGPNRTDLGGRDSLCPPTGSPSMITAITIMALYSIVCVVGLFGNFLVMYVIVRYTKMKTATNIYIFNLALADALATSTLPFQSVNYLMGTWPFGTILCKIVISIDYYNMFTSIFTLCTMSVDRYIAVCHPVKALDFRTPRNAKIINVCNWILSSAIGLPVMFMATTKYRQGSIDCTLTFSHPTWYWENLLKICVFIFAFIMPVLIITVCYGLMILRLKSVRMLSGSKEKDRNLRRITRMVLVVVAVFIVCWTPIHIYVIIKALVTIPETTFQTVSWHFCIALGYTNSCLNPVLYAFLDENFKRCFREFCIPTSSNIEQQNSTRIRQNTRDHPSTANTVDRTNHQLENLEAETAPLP
Test [14] in a line: loss of viability in HepG2 cells – cell-based, CellTiter-Glo, cherry-picked, cytotoxicity control for Shn3 inhibitor project, dose response (AID 624134). Type of test: functional. In general terms: ATP-based viability assays read luminescence as a measure of living cells.
Test [15] is described as follows: Shn3 3'UTR reporter signal decrease – cell-based, Clone20 osteoblasts, firefly luciferase, cherry-pick, set 2, Schnurri-3 inhibitor project, dose response (AID 720490).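 Further: actives lower the luminescence signal as inhibitors.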 It counts as functional.
Another test deals with Galanin receptor type 3 (Homo sapiens, UniProt O60755). Put plainly: Fluorescence-based cell-based primary high throughput dose response assay to identify antagonists of the Galanin Receptor 3 (GalR3). It counts as functional.
Chain of Galanin receptor type 3 (O60755 whole entry): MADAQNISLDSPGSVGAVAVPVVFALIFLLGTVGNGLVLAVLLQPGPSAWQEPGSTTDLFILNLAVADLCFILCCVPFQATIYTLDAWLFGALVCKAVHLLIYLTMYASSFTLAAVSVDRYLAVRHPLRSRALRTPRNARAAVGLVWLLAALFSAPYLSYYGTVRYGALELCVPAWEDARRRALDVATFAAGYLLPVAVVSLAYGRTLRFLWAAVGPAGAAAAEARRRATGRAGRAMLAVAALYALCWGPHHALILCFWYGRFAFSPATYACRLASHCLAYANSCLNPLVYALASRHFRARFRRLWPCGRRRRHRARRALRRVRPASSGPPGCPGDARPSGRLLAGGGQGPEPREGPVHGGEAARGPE
The nature of test [16]: EF1alpha-driven Renilla reporter with control 3'UTR suppression – Clone20-Shn3RL cells, dual-Glo, cherry-pick, set 2, counter-screen for Shn3 3'UTR targeting project, dose response (AID 720724). It counts as functional, cell-based. To be noted: Dual-Go Shn3RL.
The nature of test [17]: cells. Type of test: functional, cell-based. The note with it: HEK-CNG.
Test [18] addresses T3, Replicative DNA helicase DnaB (Mycobacterium tuberculosis, UniProt P9WMR3).
T3 sequence (P9WMR3 whole entry): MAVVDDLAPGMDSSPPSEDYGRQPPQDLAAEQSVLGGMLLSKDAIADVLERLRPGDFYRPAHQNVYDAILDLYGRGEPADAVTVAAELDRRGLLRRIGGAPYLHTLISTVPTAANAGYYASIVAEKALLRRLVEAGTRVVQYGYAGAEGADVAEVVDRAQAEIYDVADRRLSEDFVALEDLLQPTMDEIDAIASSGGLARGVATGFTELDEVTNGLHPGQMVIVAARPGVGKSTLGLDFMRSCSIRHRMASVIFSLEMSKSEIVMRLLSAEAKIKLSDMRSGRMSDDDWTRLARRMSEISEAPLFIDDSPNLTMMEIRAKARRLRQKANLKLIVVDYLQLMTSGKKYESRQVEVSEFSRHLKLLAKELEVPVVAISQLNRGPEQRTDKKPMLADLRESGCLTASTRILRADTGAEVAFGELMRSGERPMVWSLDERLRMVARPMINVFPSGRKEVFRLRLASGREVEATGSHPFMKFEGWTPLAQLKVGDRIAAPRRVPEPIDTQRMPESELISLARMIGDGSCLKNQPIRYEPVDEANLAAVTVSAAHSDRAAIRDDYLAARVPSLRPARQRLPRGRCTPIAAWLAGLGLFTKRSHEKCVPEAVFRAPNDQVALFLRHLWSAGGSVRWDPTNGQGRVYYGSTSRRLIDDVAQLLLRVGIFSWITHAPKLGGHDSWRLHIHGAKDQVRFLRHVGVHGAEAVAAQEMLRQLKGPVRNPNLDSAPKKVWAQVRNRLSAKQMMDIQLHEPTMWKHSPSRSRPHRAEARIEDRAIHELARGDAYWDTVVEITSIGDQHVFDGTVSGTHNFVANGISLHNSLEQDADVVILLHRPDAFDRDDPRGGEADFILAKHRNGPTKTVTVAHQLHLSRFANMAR
As to the kind of experiment: DnaB intein splicing inhibitors, dose response, biochemical, cell-free fluorescence (AID 449749). Type of test: functional.

A further test deals with T4, Protein RecA (Mycobacterium tuberculosis, UniProt P9WHJ3).
T4 sequence (P9WHJ3 whole entry): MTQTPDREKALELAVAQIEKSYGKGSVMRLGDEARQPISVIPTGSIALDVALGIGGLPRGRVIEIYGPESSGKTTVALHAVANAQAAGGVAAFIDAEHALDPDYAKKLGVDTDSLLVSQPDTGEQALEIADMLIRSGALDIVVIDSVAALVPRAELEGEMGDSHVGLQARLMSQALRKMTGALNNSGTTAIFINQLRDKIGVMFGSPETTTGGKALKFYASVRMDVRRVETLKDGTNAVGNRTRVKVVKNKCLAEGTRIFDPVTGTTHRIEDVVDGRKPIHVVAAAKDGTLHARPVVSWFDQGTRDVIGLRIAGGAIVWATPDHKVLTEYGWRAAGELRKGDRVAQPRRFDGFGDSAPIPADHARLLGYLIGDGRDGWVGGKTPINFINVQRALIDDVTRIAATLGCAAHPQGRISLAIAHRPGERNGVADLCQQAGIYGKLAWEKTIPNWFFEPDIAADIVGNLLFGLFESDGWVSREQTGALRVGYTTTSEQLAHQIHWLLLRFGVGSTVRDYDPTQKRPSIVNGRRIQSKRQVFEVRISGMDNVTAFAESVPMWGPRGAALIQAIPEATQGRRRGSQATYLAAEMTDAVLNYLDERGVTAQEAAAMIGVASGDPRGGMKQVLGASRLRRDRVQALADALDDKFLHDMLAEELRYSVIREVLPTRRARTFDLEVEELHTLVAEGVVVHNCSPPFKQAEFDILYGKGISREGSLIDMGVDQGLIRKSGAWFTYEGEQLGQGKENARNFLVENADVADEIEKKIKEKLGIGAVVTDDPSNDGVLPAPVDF
Put plainly: Fluorescence Cell-Free Homogeneous Dose Retest to Identify Inhibitors of RecA-Intein Splicing Activity. [Related pubchem assays (depositor defined):AID2097, AID2223, AID489010, AID492950]. It counts as functional.

SMILES strings stand for the structures. The source made the active and inactive calls.

Chain of Delta-type opioid receptor (P41143 whole entry): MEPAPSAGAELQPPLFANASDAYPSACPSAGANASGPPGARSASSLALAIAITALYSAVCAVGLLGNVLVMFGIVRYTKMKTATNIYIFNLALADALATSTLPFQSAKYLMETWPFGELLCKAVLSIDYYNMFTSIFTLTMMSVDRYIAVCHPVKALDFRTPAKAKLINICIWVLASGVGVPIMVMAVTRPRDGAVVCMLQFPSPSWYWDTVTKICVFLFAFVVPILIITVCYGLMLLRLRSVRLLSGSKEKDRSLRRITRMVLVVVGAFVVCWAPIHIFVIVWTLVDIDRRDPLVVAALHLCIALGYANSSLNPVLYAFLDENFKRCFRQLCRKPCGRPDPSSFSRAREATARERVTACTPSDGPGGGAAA
Chain of Potassium channel subfamily K member 9 (Q9NPC2 whole entry): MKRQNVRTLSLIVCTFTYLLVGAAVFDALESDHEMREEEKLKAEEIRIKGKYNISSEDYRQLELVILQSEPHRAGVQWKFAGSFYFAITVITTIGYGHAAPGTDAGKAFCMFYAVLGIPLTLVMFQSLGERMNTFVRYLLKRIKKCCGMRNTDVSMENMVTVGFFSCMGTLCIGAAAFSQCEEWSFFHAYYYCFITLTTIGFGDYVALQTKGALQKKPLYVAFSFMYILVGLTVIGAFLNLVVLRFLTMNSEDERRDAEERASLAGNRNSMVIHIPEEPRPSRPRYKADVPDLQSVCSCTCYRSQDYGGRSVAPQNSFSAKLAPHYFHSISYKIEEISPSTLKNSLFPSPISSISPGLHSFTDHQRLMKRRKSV

Regarding `Cc1cccc(C(=O)Nc2cccc(NC(=O)c3ccccc3C(C)C)c2)c1`, in [1], the IC50 was 2.39 µM (active).

`O=C(NCCc1ccccc1)C1CCCN(S(=O)(=O)c2cccc3nsnc23)C1` (stereo not drawn): the EC50 in [2] is 0.669 µM (active); in the test “cells [3]” it was > 29.9 µM (inactive). Further, the IC50 is 2.2 µM (active) in [4] and > 29.9 µM (inactive) in “cells [5]”.

As to `CCCCN(Cc1ccco1)C(=O)Cn1ncc2c(=O)oc3ccc(C)cc3c21`, the EC50 in [6] was > 195 µM (not active). Further, the IC50 is > 80 µM (inactive) on Beta-galactosidase and 53.2 µM (inactive) in [7].

Take `CN1CCN(Cc2nc3ccccc3c(=O)n2Cc2nc(-c3ccc4ccccc4c3)cs2)CC1`: the EC50 was > 92.5 µM (inactive) in test [8]; > 91.2 µM (inactive) in [9]; > 92.5 µM (inactive) in test [11]; > 91.2 µM (inactive) in test [12]; > 92.5 µM (inactive) at Mu-type opioid receptor. Besides, the AC50 was 11 µM (active) in test [10], 11.7 µM (active) in test [13] and 8.34 µM (active) in test [14].

For the compound `Cc1ccnc(SCC(=O)Nc2sc3c(c2C#N)CCCC3)n1`, the AC50 in test [15] was 1.18 µM (active); in test [10] it was 0.955 µM (active); in test [16] it was 11.9 µM (active); in test [13], 5 µM (active); in test [14] it was 66.8 µM (active). Also, the IC50 on Galanin receptor type 3 was > 1.11 µM (active). Also, in “cells [17]”, the EC50 was > 29.9 µM (inactive).

Consider `O=C(c1cc2cc(Br)ccc2[nH]1)N1CCC2(CC1)OCCO2`, for which, on Beta-galactosidase, the IC50 was > 80 µM (inactive).

In the case of `Cc1cc(C)c(C#N)c(SCc2n[nH]c3c2C(c2ccc(F)cc2)C(C#N)=C(N)O3)n1` (stereo not drawn), the IC50 at Galanin receptor type 3 is > 29.9 µM (inactive). The EC50 in “cells [17]” was > 29.9 µM (inactive); at Protein RecA, 11.2 µM (active). Moreover, in [18], the AC50 was 6.74 µM (active).

As usually defined, the IC50 is the concentration at which inhibition is half-maximal. Usually EC50 stands for the concentration needed to bring the measured effect to its halfway point. For orientation: AC50 means the concentration giving half of the maximal activity seen.

Values taken from ChEMBL document CHEMBL1201862, “PubChem BioAssay data set” (2004).
